# Calls of active or inactive are those of the source. No cut-off for these calls is given here.
# Key:
# [1] = system: L1210; assay: Cytotoxicity against mouse L1210 cells assessed as growth inhibition at 5 x 10^-6 M; type: functional, cell-based
# [2] = target: T1, Thymidylate synthase (Lactobacillus casei, UniProt P00469); assay: Reversible competitive inhibition of dichloromethotrexate-resistant Lactobacillus casei thymidylate synthase using […] as substrate by Dixon plot method; parameters: species or system Lacticaseibacillus casei; conditions: read-out: Ki(app)
# T1 sequence (P00469 whole entry): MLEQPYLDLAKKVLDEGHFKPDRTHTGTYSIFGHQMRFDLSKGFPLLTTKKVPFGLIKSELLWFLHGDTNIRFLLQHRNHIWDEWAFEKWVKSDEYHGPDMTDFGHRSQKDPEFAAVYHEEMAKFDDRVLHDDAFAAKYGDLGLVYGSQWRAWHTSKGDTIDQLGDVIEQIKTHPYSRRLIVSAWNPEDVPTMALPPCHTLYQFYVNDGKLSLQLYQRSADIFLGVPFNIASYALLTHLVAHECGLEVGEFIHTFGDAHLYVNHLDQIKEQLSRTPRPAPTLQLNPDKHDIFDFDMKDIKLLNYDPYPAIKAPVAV
# [3] = target: T1, Thymidylate synthase; assay: Inhibition of dichloromethotrexate-resistant Lactobacillus casei thymidylate synthase by Dixon plot method; parameters: species or system Lacticaseibacillus casei
# [4] = system: L1210; assay: Cytotoxicity against mouse L1210 cells assessed as growth inhibition at 10^-4 M; type: functional, cell-based
compound,measurement,setting,value
O=c1[nH]c(=O)n([C@H]2C[C@H](O)[C@@H](CO)O2)cc1S,Activity,[1],Active
O=c1[nH]c(=O)n([C@H]2C[C@H](O)[C@@H](COP(=O)(O)O)O2)cc1[SeH],Ki,[2],60 nM
O=c1[nH]c(=O)n([C@H]2C[C@H](O)[C@@H](COP(=O)(O)O)O2)cc1S,Ki,[3],48 nM
O=c1[nH]c(=O)n([C@H]2C[C@H](O)[C@@H](CO)O2)cc1[Se][Se]c1cn([C@H]2C[C@H](O)[C@@H](CO)O2)c(=O)[nH]c1=O,Activity,[4],inactive

# Reference: ChEMBL document CHEMBL3227965, “Synthesis of 5-selenium-substituted uracil derivatives. Inhibition of thymidylate synthetase by 5-hydroseleno-2'-deoxyuridylate” (J Med Chem, 1979)
